Experimental data from patent US12077503B2, “Substituted cyclic amides and their use as herbicides” (FMC CORPORATION, priority 2015, dated 2024).

Assays:
Assay type in all cases: in vivo
[1] = tested on: barnyardgrass (Echinochloa crus-galli); experiment: Test G Pre-Emergence Protocol; conditions: Echinochloa crus-galli, pre-emergence, 312 h, evaluated after 13 days; for pest or weed control at 15.625 g/ha: 15.625 g ai/ha; for pest or weed control at 15.625 g/ha / pest or weed control at 250 g/ha: read-out: Barnyardgrass damage rating (100=total damage to plant; 0=no damage to plant); for pest or weed control at 62.5 g/ha: 62.5 g ai/ha, 100=total damage to plant, 0=no damage to plant, read-out: Barnyardgrass damage rating; for pest or weed control at 250 g/ha: 250 g ai/ha
Method in brief: (§1)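 Visual injury (0–100) at day 13 after a single pre-emergence spray. Rates: 15.625, 62.5, 250 g/ha in acetone–water 50:50 with 0.5% Tween 20. Growth conditions: 24/16° C, 14 h light, 65% humidity.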

corn (Zea mays) [2] = experiment: Test G Pre-Emergence Protocol; conditions: Zea mays, pre-emergence, 312 h, evaluated after 13 days; for plant injury at 15.625 g/ha: 15.625 g ai/ha; for plant injury at 15.625 g/ha / plant injury at 250 g/ha: read-out: Corn damage rating (100=total damage to plant; 0=no damage to plant); for plant injury at 62.5 g/ha: 62.5 g ai/ha, 100=total damage to plant, 0=no damage to plant, read-out: Corn damage rating; for plant injury at 250 g/ha: 250 g ai/ha
Method in brief: as §1

[3] = tested on: giant foxtail (Setaria faberi); experiment: Test G Pre-Emergence Protocol; conditions: Setaria faberi, pre-emergence, 312 h, evaluated after 13 days; for pest or weed control at 15.625 g/ha: 15.625 g ai/ha; for pest or weed control at 15.625 g/ha / pest or weed control at 250 g/ha: read-out: Foxtail, Giant damage rating (100=total damage to plant; 0=no damage to plant); for pest or weed control at 62.5 g/ha: 62.5 g ai/ha, 100=total damage to plant, 0=no damage to plant, read-out: Foxtail, Giant damage rating; for pest or weed control at 250 g/ha: 250 g ai/ha
Method in brief: as §1

[4] = tested on: ivy-leaved morning glory (Ipomoea hederacea); experiment: Test G Pre-Emergence Protocol; conditions: Ipomoea, pre-emergence, 312 h, evaluated after 13 days; for pest or weed control at 15.625 g/ha: 15.625 g ai/ha; for pest or weed control at 15.625 g/ha / pest or weed control at 250 g/ha: read-out: Morningglory, Ivy-leaved damage rating (100=total damage to plant; 0=no damage to plant); for pest or weed control at 62.5 g/ha: 62.5 g ai/ha, 100=total damage to plant, 0=no damage to plant, read-out: Morningglory, Ivy-leaved damage rating; for pest or weed control at 250 g/ha: 250 g ai/ha
Method in brief: as §1

[5] = tested on: redroot pigweed (Amaranthus retroflexus); experiment: Test G Pre-Emergence Protocol; conditions: Amaranthus retroflexus, pre-emergence, 312 h, evaluated after 13 days; for pest or weed control at 15.625 g/ha: 15.625 g ai/ha; for pest or weed control at 15.625 g/ha / pest or weed control at 250 g/ha: read-out: Pigweed, Redroot damage rating (100=total damage to plant; 0=no damage to plant); for pest or weed control at 62.5 g/ha: 62.5 g ai/ha, 100=total damage to plant, 0=no damage to plant, read-out: Pigweed, Redroot damage rating; for pest or weed control at 250 g/ha: 250 g ai/ha
Method in brief: as §1

[6] = tested on: velvetleaf (Abutilon theophrasti); experiment: Test G Pre-Emergence Protocol; conditions: Abutilon theophrasti, pre-emergence, 312 h, evaluated after 13 days; for pest or weed control at 15.625 g/ha: 15.625 g ai/ha; for pest or weed control at 15.625 g/ha / pest or weed control at 250 g/ha: read-out: Velvetleaf damage rating (100=total damage to plant; 0=no damage to plant); for pest or weed control at 62.5 g/ha: 62.5 g ai/ha, 100=total damage to plant, 0=no damage to plant, read-out: Velvetleaf damage rating; for pest or weed control at 250 g/ha: 250 g ai/ha
Method in brief: as §1

[7] = tested on: barnyardgrass (Echinochloa crus-galli); experiment: Test G Post-Emergence Protocol; conditions: Echinochloa crus-galli, post-emergence, 312 h, read-out: Barnyardgrass damage rating; for pest or weed control at 15.625 g/ha: 15.625 g ai/ha, evaluated after 13 days (100=total damage to plant; 0=no damage to plant); for pest or weed control at 62.5 g/ha: 62.5 g ai/ha; for pest or weed control at 62.5 g/ha / pest or weed control at 250 g/ha: evaluated after 13 days, 100=total damage to plant, 0=no damage to plant; for pest or weed control at 250 g/ha: 250 g ai/ha
Method in brief: (§2)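 Eight days post-sowing, plants received a spray of test compound (acetone/water 50:50, 0.5% Tween 20) at 15.625, 62.5 or 250 g/ha. Glasshouse regime thereafter: 24/16 °C, 14 h light, 65% humidity. Assessment after 13 days on a 0–100 damage scale.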

corn (Zea mays) [8] = experiment: Test G Post-Emergence Protocol; conditions: Zea mays, post-emergence, 312 h, read-out: Corn damage rating; for plant injury at 15.625 g/ha: 15.625 g ai/ha, evaluated after 13 days (100=total damage to plant; 0=no damage to plant); for plant injury at 62.5 g/ha: 62.5 g ai/ha; for plant injury at 62.5 g/ha / plant injury at 250 g/ha: evaluated after 13 days, 100=total damage to plant, 0=no damage to plant; for plant injury at 250 g/ha: 250 g ai/ha
Method in brief: as §2

[9] = tested on: giant foxtail (Setaria faberi); experiment: Test G Post-Emergence Protocol; conditions: Setaria faberi, post-emergence, 312 h, read-out: Foxtail, Giant damage rating; for pest or weed control at 15.625 g/ha: 15.625 g ai/ha, evaluated after 13 days (100=total damage to plant; 0=no damage to plant); for pest or weed control at 62.5 g/ha: 62.5 g ai/ha; for pest or weed control at 62.5 g/ha / pest or weed control at 250 g/ha: evaluated after 13 days, 100=total damage to plant, 0=no damage to plant; for pest or weed control at 250 g/ha: 250 g ai/ha
Method in brief: as §2

[10] = tested on: ivy-leaved morning glory (Ipomoea hederacea); experiment: Test G Post-Emergence Protocol; conditions: Ipomoea, post-emergence, 312 h, read-out: Morningglory, Ivy-leaved damage rating; for pest or weed control at 15.625 g/ha: 15.625 g ai/ha, evaluated after 13 days (100=total damage to plant; 0=no damage to plant); for pest or weed control at 62.5 g/ha: 62.5 g ai/ha; for pest or weed control at 62.5 g/ha / pest or weed control at 250 g/ha: evaluated after 13 days, 100=total damage to plant, 0=no damage to plant; for pest or weed control at 250 g/ha: 250 g ai/ha
Method in brief: as §2

[11] = tested on: redroot pigweed (Amaranthus retroflexus); experiment: Test G Post-Emergence Protocol; conditions: Amaranthus retroflexus, post-emergence, 312 h, read-out: Pigweed, Redroot damage rating; for pest or weed control at 15.625 g/ha: 15.625 g ai/ha, evaluated after 13 days (100=total damage to plant; 0=no damage to plant); for pest or weed control at 62.5 g/ha: 62.5 g ai/ha; for pest or weed control at 62.5 g/ha / pest or weed control at 250 g/ha: evaluated after 13 days, 100=total damage to plant, 0=no damage to plant; for pest or weed control at 250 g/ha: 250 g ai/ha
Method in brief: as §2

[12] = tested on: velvetleaf (Abutilon theophrasti); experiment: Test G Post-Emergence Protocol; conditions: Abutilon theophrasti, post-emergence, 312 h, read-out: Velvetleaf damage rating; for pest or weed control at 15.625 g/ha: 15.625 g ai/ha, evaluated after 13 days (100=total damage to plant; 0=no damage to plant); for pest or weed control at 62.5 g/ha: 62.5 g ai/ha; for pest or weed control at 62.5 g/ha / pest or weed control at 250 g/ha: evaluated after 13 days, 100=total damage to plant, 0=no damage to plant; for pest or weed control at 250 g/ha: 250 g ai/ha
Method in brief: as §2

CCOc1c(Cl)cc(C2CN(C)C(=O)C2C(=O)Nc2cccc(F)c2F)cc1OC (stereo not drawn) [Compound 1721]
pest or weed control at 15.625 g/ha [1]: 0%
pest or weed control at 62.5 g/ha [1]: 50%
pest or weed control at 250 g/ha [1]: 80%
plant injury at 15.625 g/ha (corn (Zea mays) [2]): 10%
plant injury at 62.5 g/ha (corn (Zea mays) [2]): 0%
plant injury at 250 g/ha (corn (Zea mays) [2]): 0%
pest or weed control at 15.625 g/ha [3]: 30%
pest or weed control at 62.5 g/ha [3]: 60%
pest or weed control at 250 g/ha [3]: 90%
pest or weed control at 15.625 g/ha [4]: 0%
pest or weed control at 62.5 g/ha [4]: 0%
pest or weed control at 250 g/ha [4]: 0%
pest or weed control at 15.625 g/ha [5]: 0%
pest or weed control at 62.5 g/ha [5]: 0%
pest or weed control at 250 g/ha [5]: 0%
pest or weed control at 15.625 g/ha [6]: 0%
pest or weed control at 62.5 g/ha [6]: 0%
pest or weed control at 250 g/ha [6]: 0%
pest or weed control at 15.625 g/ha [7]: 0%
pest or weed control at 62.5 g/ha [7]: 30%
pest or weed control at 250 g/ha [7]: 80%
plant injury at 15.625 g/ha (corn (Zea mays) [8]): 0%
plant injury at 62.5 g/ha (corn (Zea mays) [8]): 10%
plant injury at 250 g/ha (corn (Zea mays) [8]): 10%
pest or weed control at 15.625 g/ha [9]: 0%
pest or weed control at 62.5 g/ha [9]: 50%
pest or weed control at 250 g/ha [9]: 80%
pest or weed control at 15.625 g/ha [10]: 0%
pest or weed control at 62.5 g/ha [10]: 40%
pest or weed control at 250 g/ha [10]: 70%
pest or weed control at 15.625 g/ha [11]: 0%
pest or weed control at 62.5 g/ha [11]: 0%
pest or weed control at 250 g/ha [11]: 0%
pest or weed control at 15.625 g/ha [12]: 0%
pest or weed control at 62.5 g/ha [12]: 0%
pest or weed control at 250 g/ha [12]: 0%

COc1cc(C2CN(C)C(=O)C2C(=O)Nc2cccc(F)c2F)cc(C(F)(F)F)c1F (stereo not drawn) [Compound 1701]
pest or weed control at 15.625 g/ha [1]: 0%
pest or weed control at 62.5 g/ha [1]: 30%
pest or weed control at 250 g/ha [1]: 70%
plant injury at 15.625 g/ha (corn (Zea mays) [2]): 0%
plant injury at 62.5 g/ha (corn (Zea mays) [2]): 0%
plant injury at 250 g/ha (corn (Zea mays) [2]): 30%
pest or weed control at 15.625 g/ha [3]: 40%
pest or weed control at 62.5 g/ha [3]: 80%
pest or weed control at 250 g/ha [3]: 90%
pest or weed control at 15.625 g/ha [4]: 0%
pest or weed control at 62.5 g/ha [4]: 20%
pest or weed control at 250 g/ha [4]: 20%
pest or weed control at 15.625 g/ha [5]: 0%
pest or weed control at 62.5 g/ha [5]: 0%
pest or weed control at 250 g/ha [5]: 10%
pest or weed control at 15.625 g/ha [6]: 0%
pest or weed control at 62.5 g/ha [6]: 0%
pest or weed control at 250 g/ha [6]: 0%
pest or weed control at 15.625 g/ha [7]: 10%
pest or weed control at 62.5 g/ha [7]: 60%
pest or weed control at 250 g/ha [7]: 70%
plant injury at 15.625 g/ha (corn (Zea mays) [8]): 10%
plant injury at 62.5 g/ha (corn (Zea mays) [8]): 30%
plant injury at 250 g/ha (corn (Zea mays) [8]): 50%
pest or weed control at 15.625 g/ha [9]: 40%
pest or weed control at 62.5 g/ha [9]: 60%
pest or weed control at 250 g/ha [9]: 60%
pest or weed control at 15.625 g/ha [10]: 0%
pest or weed control at 62.5 g/ha [10]: 0%
pest or weed control at 250 g/ha [10]: 30%
pest or weed control at 15.625 g/ha [11]: 0%
pest or weed control at 62.5 g/ha [11]: 0%
pest or weed control at 250 g/ha [11]: 30%
pest or weed control at 15.625 g/ha [12]: 0%
pest or weed control at 62.5 g/ha [12]: 0%
pest or weed control at 250 g/ha [12]: 0%
